Measurements published in patent EP1345943B1, “INHIBITORS OF PAPILLOMA VIRUS” (BOEHRINGER INGELHEIM (CANADA) LTD., priority 2000, dated 2002).

Target: E1-E2-DNA complex (Human papillomavirus 11, UniProt P04015)
Experiment: E2-dependent E1 DNA binding assay (E1-E2 DNA assay)
Settings: E1-E2 DNA assay of Example 11, HPV-11
Description: This particular assay determines the ability of a test compound to inhibit the activity (IC50) of HPV-11 DNA replication. More specifically, in the assay described herein, the inhibitory activity of the test compound is evaluated based on its ability to interfere with the E1-E2-DNA origin of replication interaction, thereby inhibiting initiation of viral DNA replication.
This assay was modeled on a similar assay for SV40 T Antigen described by McKay (J. Mol. Biol., 1981,145:471). A 400bp radiolabeled DNA probe, containing the -HPV-11 origin of replication (Chiang et al.., 1992, Proc. Natl.-Acad. Sci. USA 89:5799) was produced by pcr, using plasmid pBluescript™ SK encoding the origin (nucleotides 7886-61 of the HPV-11 genome in unique BAMH1 site) as template and primers flanking the origin. Radiolabel was incorporated as [33p]dCTP. Binding assay buffer consisted of: 20 mM Tris pH 7.6, 100 mM NaCI, 1 mM DTT, 1 mM EDTA.
Other reagents used were protein A-SPA beads (type II, Amersham) and K72 rabbit polyclonal antiserum, raised against a peptide corresponding to the C-terminal 14 amino acids of HPV-11 E1. Following the protocol from Amersham, one bottle of beads was mixed with 25 mL of binding assay buffer. For the assay, a saturating amount of K72 antiserum was added to the beads and the mixture was incubated for 1 h, washed with one volume of binding assay buffer, and then resuspended in the same volume of fresh binding assay buffer. Binding reactions contained 8 ng of E2, approximately 100-200 ng of purified E1, and 0.4 ng of radiolabeled probe in a total of 80 µL of binding assay buffer. After 1 h at room temperature, 25 µL of K72 antibody-SPA bead suspension was added to with the binding reaction and mixed. After an additional hour of incubation at room temperature, the reactions were centrifuged briefly to pellet the beads and the extent of complex formation was determined by scintillation counting on a Packard TopCount™. Typically, the signal for reactions containing E1 and E2 was 20-30 fold higher than the background observed when either E1, E2, or both was omitted.

E1-E2-DNA complex, sequence (P04015 whole entry, one chain of several): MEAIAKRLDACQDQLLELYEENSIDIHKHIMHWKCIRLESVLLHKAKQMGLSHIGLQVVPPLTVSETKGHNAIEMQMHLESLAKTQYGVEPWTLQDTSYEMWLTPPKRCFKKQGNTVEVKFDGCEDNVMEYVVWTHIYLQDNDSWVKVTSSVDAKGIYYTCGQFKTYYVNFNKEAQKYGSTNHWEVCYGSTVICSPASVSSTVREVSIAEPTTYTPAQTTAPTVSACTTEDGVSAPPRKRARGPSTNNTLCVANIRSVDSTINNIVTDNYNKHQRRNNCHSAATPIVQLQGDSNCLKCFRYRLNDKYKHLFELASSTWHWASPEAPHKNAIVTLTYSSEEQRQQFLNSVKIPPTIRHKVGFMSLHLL

SMILES | IC50 [µM]
Cc1ccc2c(c1)C1(O)OC(=O)C3C(C(=O)NCCc4ccccc4Cl)C(c4ccc(Br)c(Br)c4)OC31C2=O (single isomer, unassigned) [Compound B1007] | < 0.5
Cc1cc2c(cc1F)C(=O)C13OC(c4ccc(Br)c(Br)c4)C(C(=O)Nc4ccc(N5CCOCC5)cc4)C1C(=O)OC23O (single isomer, unassigned) [Compound B1008] | < 0.5
CC(=O)c1ccc(NC(=O)C2C(c3ccc(Cl)c(Cl)c3)OC34C(=O)c5cc(C)sc5C3(O)OC(=O)C24)cc1 (single isomer, unassigned) [Compound D1001] | < 0.5
Cc1cc2c(s1)C1(O)OC(=O)C3C(C(=O)Nc4ccc(N5CCOCC5)cc4)C(c4ccc(Br)c(Br)c4)OC31C2=O (single isomer, unassigned) [Compound D1002] | < 0.5
Cc1cc2c(s1)C1(O)OC(=O)C3C(C(=O)Nc4ccc(CNC(=O)OC(C)(C)C)cc4)C(c4ccc(Br)c(Br)c4)OC31C2=O (single isomer, unassigned) [Compound D1003] | < 0.5
CC(=O)NCc1ccc(NC(=O)C2C(c3ccc(Br)c(Br)c3)OC34C(=O)c5cc(C)sc5C3(O)OC(=O)C24)cc1 (single isomer, unassigned) [Compound D1004] | < 0.5
O=C(Nc1ccc(N2CCOCC2)cc1)C1C(c2ccc(Br)c(Br)c2)OC2(C(=O)c3ccccc3C2=O)C1C(=O)O (stereo not shown) [10,001] | 0.5 to 5
O=C(Nc1ccc2c(c1)OCO2)C1C(c2ccc(Cl)cc2)OC2(C(=O)c3ccccc3C2=O)C1C(=O)O (stereo not shown) [Compound 1001] | 5 to 50
O=C(Nc1ccc2c(c1)OCO2)C1C(c2ccc(Cl)c(Cl)c2)OC2(C(=O)c3ccccc3C2=O)C1C(=O)O (stereo not shown) [Compound 1002] | < 0.5
O=C(Nc1ccc(F)cc1)C1C(c2ccc(Cl)cc2)OC2(C(=O)c3ccccc3C2=O)C1C(=O)O (stereo not shown) [Compound 1003] | 5 to 50
COc1ccc(NC(=O)C2C(c3ccc(Cl)cc3)OC3(C(=O)c4ccccc4C3=O)C2C(=O)O)cc1OC (stereo not shown) [Compound 1004] | 5 to 50
CC(=O)c1ccc(NC(=O)C2C(c3ccc(Cl)cc3)OC3(C(=O)c4ccccc4C3=O)C2C(=O)O)cc1 (stereo not shown) [Compound 1005] | 5 to 50
O=C(Nc1cccc(Cl)c1)C1C(c2ccc(Cl)cc2)OC2(C(=O)c3ccccc3C2=O)C1C(=O)O (stereo not shown) [Compound 1006] | 5 to 50
Cc1ccc(NC(=O)C2C(c3ccc(Cl)cc3)OC3(C(=O)c4ccccc4C3=O)C2C(=O)O)cc1 (stereo not shown) [Compound 1007] | 5 to 50
CC(C)c1ccc(C2OC3(C(=O)c4ccccc4C3=O)C(C(=O)O)C2C(=O)Nc2ccc3c(c2)OCO3)cc1 (stereo not shown) [Compound 1008] | 5 to 50
O=C(Nc1ccc(F)cc1F)C1C(c2ccc(Cl)cc2)OC2(C(=O)c3ccccc3C2=O)C1C(=O)O (stereo not shown) [Compound 1009] | 5 to 50
O=C(Nc1ccc(Cl)cc1)C1C(c2ccc(Cl)cc2)OC2(C(=O)c3ccccc3C2=O)C1C(=O)O (stereo not shown) [Compound 1010] | 5 to 50
O=C(Nc1ccccc1)C1C(c2ccc(Cl)cc2)OC2(C(=O)c3ccccc3C2=O)C1C(=O)O (stereo not shown) [Compound 1011] | 5 to 50
Cc1cccc(NC(=O)C2C(c3ccc(Cl)cc3)OC3(C(=O)c4ccccc4C3=O)C2C(=O)O)c1 (stereo not shown) [Compound 1012] | 5 to 50
O=C(Nc1ccc2c(c1)CCC2)C1C(c2ccc(Cl)cc2)OC2(C(=O)c3ccccc3C2=O)C1C(=O)O (stereo not shown) [Compound 1013] | 5 to 50
O=C(Nc1ccc(C(F)(F)F)cc1)C1C(c2ccc(Cl)cc2)OC2(C(=O)c3ccccc3C2=O)C1C(=O)O (stereo not shown) [Compound 1014] | 5 to 50
O=C(Nc1ccc2c(c1)OCO2)C1C(c2cccc(Cl)c2)OC2(C(=O)c3ccccc3C2=O)C1C(=O)O (stereo not shown) [Compound 1015] | 0.5 to 5
O=C(Nc1ccc2c(c1)OCO2)C1C(c2ccc(C(F)(F)F)cc2)OC2(C(=O)c3ccccc3C2=O)C1C(=O)O (stereo not shown) [Compound 1016] | 5 to 50
COC(=O)C1C(C(=O)Nc2ccc3c(c2)OCO3)C(c2ccc(Cl)cc2)OC12C(=O)c1ccccc1C2=O (stereo not shown) [Compound 1017] | 5 to 50
Cc1cccc(C2OC3(C(=O)c4ccccc4C3=O)C(C(=O)O)C2C(=O)Nc2ccc3c(c2)OCO3)c1 (stereo not shown) [Compound 1018] | 5 to 50
O=C(Nc1ccc2c(c1)OCO2)C1C(c2ccc(Cl)cc2)OC2(C(=O)c3cccc(F)c3C2=O)C1C(=O)O (stereo not shown) [Compound 1019] | 5 to 50
O=C(Nc1ccc2c(c1)OCO2)C1C(c2cc(Cl)cc(Cl)c2)OC2(C(=O)c3ccccc3C2=O)C1C(=O)O (stereo not shown) [Compound 1020] | 5 to 50
CC(=O)c1ccc(NC(=O)C2C(c3ccc(Cl)c(Cl)c3)OC3(C(=O)c4ccccc4C3=O)C2C(=O)O)cc1 (stereo not shown) [Compound 1021] | < 0.5

SMILES | IC50 [µM]
Cc1ccc(C2OC3(C(=O)c4ccccc4C3=O)C(C(=O)O)C2C(=O)Nc2ccc3c(c2)OCO3)cc1C (stereo not shown) [Compound 1024] | 0.5 to 5
CC(C)(C)c1ccc(NC(=O)C2C(c3ccc(Cl)c(Cl)c3)OC3(C(=O)c4ccccc4C3=O)C2C(=O)O)cc1 (stereo not shown) [Compound 1025] | 0.5 to 5
Cc1ccc2nc(-c3ccc(NC(=O)C4C(c5ccc(Cl)c(Cl)c5)OC5(C(=O)c6ccccc6C5=O)C4C(=O)O)cc3)sc2c1 (stereo not shown) [Compound 1028] | < 0.5
O=C(Nc1ccc2c(c1)OCO2)C1C(c2ccc(Cl)c(F)c2)OC2(C(=O)c3ccccc3C2=O)C1C(=O)O (stereo not shown) [Compound 1029] | 0.5 to 5
O=C(Nc1ccc2c(c1)OCO2)C1C(c2ccc(F)c(Cl)c2)OC2(C(=O)c3ccccc3C2=O)C1C(=O)O (stereo not shown) [Compound 1030] | 0.5 to 5
O=C(Nc1ccc2c(c1)OCO2)C1C(c2cccc(C(F)(F)F)c2)OC2(C(=O)c3ccccc3C2=O)C1C(=O)O (stereo not shown) [Compound 1031] | 0.5 to 5
CC(=O)c1ccc(NC(=O)C2C(c3cccc(Cl)c3)OC3(C(=O)c4ccccc4C3=O)C2C(=O)O)cc1 (stereo not shown) [Compound 1032] | 0.5 to 5
CSc1ccc(NC(=O)C2C(c3ccc(Cl)c(Cl)c3)OC3(C(=O)c4ccccc4C3=O)C2C(=O)O)cc1 (stereo not shown) [Compound 1033] | 0.5 to 5
O=C(Nc1ccc(N2CCOCC2)cc1)C1C(c2ccc(Cl)c(Cl)c2)OC2(C(=O)c3ccccc3C2=O)C1C(=O)O (stereo not shown) [Compound 1034] | < 0.5
CC(=O)Nc1ccc(NC(=O)C2C(c3ccc(Cl)c(Cl)c3)OC3(C(=O)c4ccccc4C3=O)C2C(=O)O)cc1 (stereo not shown) [Compound 1035] | < 0.5
CC(C)NC(=O)C1C(c2ccc(Cl)c(Cl)c2)OC2(C(=O)c3ccccc3C2=O)C1C(=O)O (stereo not shown) [Compound 1036] | 0.5 to 5
Cc1ccc2c(c1)C(=O)C1(OC(c3ccc(Cl)c(Cl)c3)C(C(=O)Nc3ccc4c(c3)OCO4)C1C(=O)O)C2=O (stereo not shown) [Compound 1037] | 0.5 to 5
O=C(Nc1ccc2c(c1)OCO2)C1C(c2ccc(I)cc2)OC2(C(=O)c3ccccc3C2=O)C1C(=O)O (stereo not shown) [Compound 1039] | 0.5 to 5
O=C(Nc1cc2ccccc2cn1)C1C(c2ccc(Cl)c(Cl)c2)OC2(C(=O)c3ccccc3C2=O)C1C(=O)O (stereo not shown) [Compound 1040] | 0.5 to 5
Cc1cccc2c1C(=O)C1(OC(c3ccc(Cl)c(Cl)c3)C(C(=O)Nc3ccc4c(c3)OCO4)C1C(=O)O)C2=O (stereo not shown) [Compound 1041] | 0.5 to 5
Cc1cccc2c1C(=O)C1(OC(c3ccc(Cl)c(Cl)c3)C(C(=O)Nc3ccc4c(c3)OCO4)C1C(=O)O)C2=O (stereo not shown) [Compound 1042] | 0.5 to 5
O=C(NN1CCOCC1)C1C(c2ccc(Cl)c(Cl)c2)OC2(C(=O)c3ccccc3C2=O)C1C(=O)O (stereo not shown) [Compound 1043] | 0.5 to 5
CC(=O)c1ccc(NC(=O)C2C(c3cccc(Cl)c3)OC3(C(=O)c4ccccc4C3=O)C2C(=O)O)cc1 (stereo not shown) [Compound 1044] | 5 to 50
O=C(Nc1ccc2c(c1)OCO2)C1C(c2ccc(C(F)(F)F)c(F)c2)OC2(C(=O)c3ccccc3C2=O)C1C(=O)O (stereo not shown) [Compound 1045] | 0.5 to 5
CC(C)(C)NC(=O)C1C(c2ccc(Cl)c(Cl)c2)OC2(C(=O)c3ccccc3C2=O)C1C(=O)O (stereo not shown) [Compound 1046] | 0.5 to 5
O=C(Nc1ccc2c(c1)OCO2)C1C(c2ccc(Cl)c(Cl)c2)OC2(C(=O)c3cccc(F)c3C2=O)C1C(=O)O (stereo not shown) [Compound 1048] | 0.5 to 5
O=C(Nc1ccc(Oc2ccccc2)cc1)C1C(c2ccc(Cl)c(Cl)c2)OC2(C(=O)c3ccccc3C2=O)C1C(=O)O (stereo not shown) [Compound 1049] | 0.5 to 5
O=C(Nc1ccc2c(c1)OCO2)C1C(c2ccc(Cl)c(Cl)c2)OC2(C(=O)c3cccc(F)c3C2=O)C1C(=O)O (stereo not shown) [Compound 1051] | 0.5 to 5
O=C(Nc1ccc(-c2csnn2)cc1)C1C(c2ccc(Cl)c(Cl)c2)OC2(C(=O)c3ccccc3C2=O)C1C(=O)O (stereo not shown) [Compound 1052] | < 0.5
CS(=O)(=O)c1ccc(NC(=O)C2C(c3ccc(Cl)c(Cl)c3)OC3(C(=O)c4ccccc4C3=O)C2C(=O)O)cc1 (stereo not shown) [Compound 1053] | 0.5 to 5
O=C(Nc1ccc(C2CCCCC2)cc1)C1C(c2ccc(Cl)c(Cl)c2)OC2(C(=O)c3ccccc3C2=O)C1C(=O)O (stereo not shown) [Compound 1054] | < 0.5
CCc1ccc(NC(=O)C2C(c3ccc(Cl)c(Cl)c3)OC3(C(=O)c4ccccc4C3=O)C2C(=O)O)cc1 (stereo not shown) [Compound 1055] | 0.5 to 5
